pIC50: −log10 of the molar value. Values after ≈ are worked out from the molar mass of the structure shown. Active and inactive are the calls of the source. The calls are words filed in the database; no cut-off is given here.
Assays:
Hemozoin [1] = test: Inhibition of beta-hematin in water/NP40/DMSO solution incubated for 5 to 6hrs by detergent-mediated pyridine-ferrichrome method
Plasmodium falciparum [2] = test: Antimalarial activity against CQ-sensitive Plasmodium falciparum NF54 infected in human type O+ erythrocytes assessed as growth inhibition incubated for 48 hrs by LDH assay; format: functional, organism-based; settings: NF54, 48 h
Ferriprotoporphyrin IX [3] = test: Binding affinity to Fe(3)PP9 solution assessed as ferriprotoporphyrin 9 complex formation by measuring pink precipitate formation at <=5500 uM
Ferriprotoporphyrin IX [4] = test: Binding affinity to Fe(3)PP9 solution assessed as ferriprotoporphyrin 9 complex formation by measuring compound concentration causing pink precipitate formation at <=5500 uM
Plasmodium falciparum [5] = test: Antimalarial activity against CQ-sensitive Plasmodium falciparum D10 infected in human type O+ erythrocytes assessed as growth inhibition incubated for 48 hrs by LDH assay; format: functional, organism-based; settings: D10, 48 h
Hemozoin [6] = test: Inhibition of beta-hematin incubated for 6 hrs by NP40 detergent-mediated assay
Plasmodium falciparum [7] = test: Antimalarial activity against Plasmodium falciparum D6 infected in red blood cells assessed as growth inhibition by SYBR green1 fluorescence-based assay; format: functional, organism-based
Hemozoin [8] = test: Inhibition of hemozoin formation in CQ-sensitive Plasmodium falciparum D10 infected in human type O+ erythrocytes assessed as free heme level at beta-hematin IC50 incubated for 32 hrs by cell fractionation assay (reference value: 7%); format: cell-based; design: scale not given: the % may be the effect or the level left; settings: Erythrocyte
Hemozoin [9] = test: Inhibition of hemozoin formation in CQ-sensitive Plasmodium falciparum D10 infected in human type O+ erythrocytes assessed as hemozoin level at beta-hematin IC50 incubated for 32 hrs by cell fractionation assay (reference value: 89%); format: cell-based; design: scale not given: the % may be the effect or the level left; settings: Erythrocyte
Plasmodium falciparum [10] = test: Antimalarial activity against CQ-sensitive Plasmodium falciparum D10 infected in human type O+ erythrocytes assessed as growth inhibition up to 249 uM incubated for 48 hrs by LDH assay; format: functional, organism-based
Plasmodium falciparum [11] = test: Antimalarial activity against CQ-sensitive Plasmodium falciparum NF54 infected in human type O+ erythrocytes assessed as growth inhibition up to 249 uM incubated for 48 hrs by LDH assay; format: functional, organism-based
Hemozoin [12] = test: Inhibition of hemozoin formation in CQ-sensitive Plasmodium falciparum D10 infected in human type O+ erythrocytes assessed as decrease in hemozoin formation incubated for 32 hrs by cell fractionation assay; format: cell-based; settings: Erythrocyte
Hemozoin [13] = test: Inhibition of hemozoin formation in CQ-sensitive Plasmodium falciparum D10 infected in human type O+ erythrocytes assessed as increase in free heme incubated for 32 hrs by cell fractionation assay; format: cell-based; settings: Erythrocyte
Ferriprotoporphyrin IX [14] = system: Ferriprotoporphyrin IX
Description: Binding affinity to Fe(3)PP9 in hematin solution at pH 7.5 by titration-based UV-vis spectrophotometrical analysis

Hemozoin [15] = test: Inhibition of hemozoin formation in CQ-sensitive Plasmodium falciparum D10 infected in human type O+ erythrocytes assessed as increase in free heme at 0.5 to 4 times beta-hematin IC50 incubated for 32 hrs by cell fractionation assay; format: cell-based; settings: Erythrocyte
Hemozoin [16] = test: Inhibition of hemozoin formation in CQ-sensitive Plasmodium falciparum D10 infected in human type O+ erythrocytes assessed as decrease in hemozoin formation at 0.5 to 4 times beta-hematin IC50 incubated for 32 hrs by cell fractionation assay; format: cell-based; settings: Erythrocyte
[17] = Kinetic solubility of compound at pH 2 after 2 hrs by shake flask assay; format: physicochemical; settings: buffer, read-out: Kinetic_solubility
[18] = Kinetic solubility of compound in at pH 6.5 after 2 hrs by shake flask assay; format: physicochemical; settings: buffer, read-out: Kinetic_solubility
[19] = Kinetic solubility of compound FaSSIF at pH 6.5 after 2 hrs by shake flask assay; format: physicochemical; settings: read-out: Kinetic_solubility
[20] = Clearance in rat liver microsomes assessed per mg of protein at 0.1 uM by LC-MS/MS analysis; format: ADME, Microsome; settings: read-out: CLH
[21] = Half life in mouse liver microsomes at 0.1 uM in presence of NADPH by LC-MS/MS analysis; format: ADME, Microsome
[22] = Clearance in mouse liver microsomes assessed per mg of protein at 0.1 uM by LC-MS/MS analysis; format: ADME, Microsome; settings: read-out: CLH
CHO = test: Cytotoxicity against CHO cells by MTT assay; format: cell-based; settings: Cricetulus griseus
[23] = Half life in rat liver microsomes at 0.1 uM in presence of NADPH by LC-MS/MS analysis; format: ADME, Microsome
[24] = Half life in human liver microsomes at 0.1 uM in presence of NADPH by LC-MS/MS analysis; format: ADME, Microsome
[25] = Clearance in human liver microsomes assessed per mg of protein at 0.1 uM by LC-MS/MS analysis; format: ADME, Microsome; settings: read-out: CLH

SMILES	pIC50 (Hemozoin [1])	pIC50 (Plasmodium falciparum [2])	also measured
O=C(Nc1ccccc1)c1cc(C(=O)Nc2ccccc2)cc([N+](=O)[O-])c1	5.15	5.85	–
O=C(Nc1ccncc1)c1ccc([N+](=O)[O-])cc1	< 2.26	–	Activity (Ferriprotoporphyrin IX [3]): inactive; Activity (Ferriprotoporphyrin IX [4]): inactive
O=C(Nc1ccccc1)c1ccccc1[N+](=O)[O-]	< 3.00	< 4.38	–
COc1cc(C(=O)Nc2ccncc2)cc(C(=O)Nc2ccncc2)c1	4.66	5.52	–
N#Cc1cc(C(=O)Nc2ccccc2)cc(C(=O)Nc2ccccc2)c1	5.36	–	pIC50 (Plasmodium falciparum [5]): 5.28
CC(C)(C)c1cc(C(=O)Nc2ccncc2)cc(C(=O)Nc2ccncc2)c1	4.88	5.80	–
O=C(Nc1ccncc1)c1cc([N+](=O)[O-])cc([N+](=O)[O-])c1	4.96	5.64	pIC50 (Hemozoin [6]): 5.04; pIC50 (Plasmodium falciparum [5]): 5.62; pIC50 (Plasmodium falciparum [7]): 5.32
O=C(Nc1ccncc1)c1ccc(Cl)cc1	–	–	Activity (Ferriprotoporphyrin IX [4]): 4500 to 5500 µM
O=C(Nc1ccncc1)c1ccccc1	< 2.26	–	Activity (Ferriprotoporphyrin IX [3]): inactive; Activity (Ferriprotoporphyrin IX [4]): inactive
O=C(Nc1ccncc1)c1cccc(Cl)c1	–	–	Activity (Ferriprotoporphyrin IX [4]): 1300 to 2300 µM
O=C(Nc1ccncc1)c1cccc(C(F)(F)F)c1	–	–	Activity (Ferriprotoporphyrin IX [4]): 1300 to 2300 µM
O=C(Nc1ccccn1)c1cc([N+](=O)[O-])cc([N+](=O)[O-])c1	3.87	4.66	pIC50 (Plasmodium falciparum [5]): 4.62
O=C(Nc1ccncc1)c1cccc(C(=O)Nc2ccncc2)n1	3.59	< 3.50	–
CN(C)Cc1ccc(NC(=O)c2cc(C(=O)Nc3ccc(CN(C)C)cc3)cc([N+](=O)[O-])c2)cc1	5.10	5.82	Activity (Hemozoin [8]): 41%; Activity (Hemozoin [9]): 53%
O=C(Nc1ccncc1)c1cccc(C(=O)Nc2ccncc2)c1	3.29	5.05	–
O=C(Nc1ccncc1)c1ccc(Cl)c(Cl)c1	–	–	Activity (Ferriprotoporphyrin IX [4]): 700 to 1300 µM
O=C(Nc1cccnc1)c1cc(C(=O)Nc2cccnc2)cc([N+](=O)[O-])c1	5.33	5.88	–
N#Cc1cc(C(=O)Nc2ccncc2)cc(C(=O)Nc2ccncc2)c1	5.20	5.72	pIC50 (Plasmodium falciparum [5]): 5.70

SMILES	pIC50 (Hemozoin [1])	pIC50 (Plasmodium falciparum [2])	also measured
COc1ccc(C(=O)Nc2ccncc2)cc1	< 2.26	–	Activity (Ferriprotoporphyrin IX [3]): inactive; Activity (Ferriprotoporphyrin IX [4]): inactive
O=C(Nc1ccccc1)c1cc(C(=O)Nc2nc3ccccc3[nH]2)cc([N+](=O)[O-])c1	4.17	–	Activity (Plasmodium falciparum [10]): inactive; Activity (Plasmodium falciparum [11]): inactive
O=C(Nc1ccccc1)c1cc(C(=O)Nc2ccccc2)cc(C(=O)Nc2ccccc2)c1	4.68	4.09	pIC50 (Plasmodium falciparum [5]): < 4.38
Cc1cc(C(=O)Nc2ccccc2)cc(C(=O)Nc2ccccc2)c1	< 3.00	3.84	–
O=C(Nc1ccncc1)c1ccc([N+](=O)[O-])cc1[N+](=O)[O-]	< 2.26	–	Activity (Ferriprotoporphyrin IX [3]): inactive; Activity (Ferriprotoporphyrin IX [4]): inactive
Cc1ccc(C(=O)Nc2ccncc2)cc1	< 2.26	–	Activity (Ferriprotoporphyrin IX [3]): inactive; Activity (Ferriprotoporphyrin IX [4]): inactive
O=C(Nc1cccnc1)c1cc([N+](=O)[O-])cc([N+](=O)[O-])c1	4.89	5.30	pIC50 (Plasmodium falciparum [5]): 5.64; inhibition (Hemozoin [12]): Dose-dependent effect; inhibition (Hemozoin [13]): Dose-dependent effect
CCN(CC)CCCC(C)Nc1ccnc2cc(Cl)ccc12 (centres undefined) [CHLOROQUINE]	4.50	–	–
O=C(Nc1ccccc1)c1cccc(C(=O)Nc2ccccc2)c1	< 3.00	< 3.50	–
O=C(Nc1ccccc1)c1ccc([N+](=O)[O-])cc1	< 2.26	–	Activity (Ferriprotoporphyrin IX [3]): inactive; Activity (Ferriprotoporphyrin IX [4]): inactive
C=C[C@H]1CN2CC[C@H]1C[C@@H]2[C@@H](O)c1ccnc2ccc(OC)cc12	–	–	log K (Ferriprotoporphyrin IX [14]): 5.26
COc1cc(C(=O)Nc2ccccc2)cc(C(=O)Nc2ccccc2)c1	< 3.00	4.43	–
CC(C)(C)c1cc(C(=O)Nc2ccccc2)cc(C(=O)Nc2ccccc2)c1	< 3.00	5.09	inhibition (Hemozoin [15]): inactive; inhibition (Hemozoin [16]): inactive
Cc1cc(C(=O)Nc2ccncc2)cc(C(=O)Nc2ccncc2)c1	5.10	5.60	log K (Ferriprotoporphyrin IX [14]): 3.92
O=C(Nc1ccncc1)c1cc(C(=O)Nc2ccncc2)cc([N+](=O)[O-])c1	5.37	6.15	solubility kinetic at 2 h [17]: 200 µM (≈ 72.6 µg/mL); solubility kinetic at 2 h [18]: < 5 µM; pIC50 (Hemozoin [6]): 5.23; solubility kinetic at 2 h [19]: 13 µM (≈ 4.72 µg/mL); pIC50 (Plasmodium falciparum [5]): 6.05; microsomal CLint at 0.1 µM [20]: < 11.6 µL/min/mg; half-life at 0.1 µM [21]: > 2.5 h; microsomal CLint at 0.1 µM [22]: < 11.6 µL/min/mg; pIC50 (CHO): < 3.56; half-life at 0.1 µM [23]: > 2.5 h; half-life at 0.1 µM [24]: > 2.5 h; microsomal CLint at 0.1 µM [25]: < 11.6 µL/min/mg; pIC50 (Plasmodium falciparum [7]): 6.72
O=C(Nc1ccccc1)c1cccc(C(=O)Nc2ccccc2)n1	< 3.00	< 3.50	–
Nc1ccnc2cc(Cl)ccc12	–	–	log K (Ferriprotoporphyrin IX [14]): 4.43
O=C(Nc1ccccc1)c1cc([N+](=O)[O-])cc([N+](=O)[O-])c1	4.66	5.30	–

— ChEMBL document CHEMBL4428041, “Identification and SAR Evaluation of Hemozoin-Inhibiting Benzamides Active against Plasmodium falciparum” (J Med Chem, 2016)
